These are literature values, as cited in patent US9932302B1, “N-phenyl and N-benzyl enaminones and methods for using same” (University of Maryland Eastern Shore, priority 2013, dated 2018).

Holding throughout (conditions): pre-clinical pharmacological profile
One data set has as its system 6 Hz psychomotor seizure.
The subject of data set [1] is maximal electroshock seizure (MES).
For data set [2], the system named is subcutaneous Metrazol (sc Met) induced seizure.

Molecules are shown by their SMILES.

Turning to `CC[C@@H](C(N)=O)N1CCCC1=O` [levetiracetam], the “6 Hz activity profile of current AED” value with 6 Hz psychomotor seizure is given as “active”.
For the compound `O=C1NC(=O)C(c2ccccc2)(c2ccccc2)N1` [phenytoin], the “MES activity profile of current AED” value in data set [1] is recorded as “active”. For the same compound, the “scPTZ activity profile of current AED” value in data set [2] is given as “active”.
